Assay results: patent US20260184712A1, “Heterocyclic Compounds as ENT Inhibitors and Compounds for Use in the Treatment of Cancers” (iTeos Belgium SA, priority 2022, published 2026)

biological target: T1, human ENT1 (Homo sapiens, UniProt Q99808); assay: ENT1 binding assay (competition with Sahenta-DY647 on JAR cells); conditions: competition with SAHENTA-DY647 binding; IC50 categorized; read-out: Binding Assay IC50
T1 construct: JAR cells expressing ENT1 were purchased from ATCC; host or cells: JAR cells
T1 sequence (Q99808 1-456): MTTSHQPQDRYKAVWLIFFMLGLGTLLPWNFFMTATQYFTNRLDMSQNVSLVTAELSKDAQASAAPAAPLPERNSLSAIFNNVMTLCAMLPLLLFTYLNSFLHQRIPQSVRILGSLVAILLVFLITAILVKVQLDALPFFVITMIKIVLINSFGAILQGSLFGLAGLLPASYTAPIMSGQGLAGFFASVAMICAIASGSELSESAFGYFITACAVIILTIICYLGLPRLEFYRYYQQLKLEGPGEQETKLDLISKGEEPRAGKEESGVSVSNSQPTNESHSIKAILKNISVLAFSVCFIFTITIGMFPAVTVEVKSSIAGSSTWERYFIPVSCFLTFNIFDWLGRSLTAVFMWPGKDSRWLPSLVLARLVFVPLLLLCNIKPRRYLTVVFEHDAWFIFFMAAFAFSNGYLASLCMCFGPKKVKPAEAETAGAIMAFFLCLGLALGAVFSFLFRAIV
Experimental: Compounds of the present disclosure were assayed to show ability to bind to human ENT1. The assay is a competition between a compound of interest and Sahenta-DY647, an ENT1 inhibitor that emits fluorescence (Ex=630 nm, Em=670 nm). By measuring the fluorescence at the end of the assay, one can assess the binding potency of the compounds tested. The compounds of the present disclosure were tested and compared to known ENT inhibitors, dilazep and NBMPR:
JAR cells expressing ENT1 were purchased from ATCC® (HTB-144TM). Cells were cultured in RPMI 1640 medium (LONZA®, #BE12-702F/U1) supplemented with 10% FBS (GIBCO®, #10270-106), 10 mM Hepes (LONZA®, #BE17-737E), 1 mM Sodium Pyruvate (LONZA®, #BE13-115E), and 2% Penicillin/Streptomycin (LONZA®, #DE17-603E) at 37° C. and 5% CO2.
The assay was conducted with the following buffer on the day of the assay: HBSS (LONZA®, #LO-527F) supplemented with 10 mM Hepes (LONZA®, #BE17-737E) and 0.1% BSA (Miltenyi®, #130-091-376).
JAR cells were resuspended in the described buffer. The compounds of interest and Sahenta-DY647 were diluted 200× with the described buffer.
A total of 50,000 cells were pre-incubated for 30 min at 4° C. with the compounds of the present disclosure before adding the corresponding amount of Sahenta-DY647 (100 nM) to the minimal concentration at Bmax and incubating for an additional 30 min at 4° C. The total volume of the reaction was 100 μL (50 μL of cells, 25 μL of the compounds of the present disclosure, and 25 μL of Sahenta-DY647) in a U-bottom 96 well plate (Greiner®, #650-180). The plates were washed 2× by centrifugation (4 min, 400 rcf at 4° C.) in the same buffer. Cells were re-suspended in 70 μL of the buffer and 50 μL was transferred to a Black 384 Optiplate (PerkinElmer®, #6007279). Fluorescence (Ex=630 nm, Em=670 nm) was acquired on a Spectramax i3x (Molecular Devices®).
Dose-response data from the compounds were analyzed with Graphpad Prism 9.1.1@software, using nonlinear regression applied to a sigmoidal dose-response model and the following equation:
Y=Bottom+(Top-Bottom)/(1+10^((LogIC50−X)*HillSlope)), with a shared bottom and top between the test reagent and dipyridamole.
Data from multiple experiments were compiled by taking the average pIC50 value for the reagent in question±the standard deviation (s.d.) and expressing it as an average IC50 value in nM.
The inhibitory effect of the test compound was expressed as a percentage of the inhibition of SAHENTA-DY647 binding.

| SMILES | IC50 [nM] |
| --- | --- |
| C[C@H]1O[C@@H](n2cnc3c(SCc4ccc(C(F)(F)F)nc4)ncnc32)[C@H](O)[C@@H]1O [Compound 270] | > 500 |
| C[C@H]1O[C@@H](n2cnc3c(C(=O)NCc4ccc(Cl)cc4F)ncnc32)[C@H](O)[C@@H]1O [Compound 330] | > 500 |
| O=C(NCCO)[C@H]1O[C@@H](n2cnc3c(OCc4ccc([N+](=O)[O-])cc4)ncnc32)[C@H](O)[C@@H]1O [Compound 271] | > 500 |
| C[C@H]1O[C@@H](n2cnc3c(OCCc4ccc(OC(F)F)nc4)ncnc32)[C@H](O)[C@@H]1O [Compound 278] | > 500 |
| C[C@H]1O[C@@H](n2cnc3c(OCc4ccc5cnn(C)c5c4)ncnc32)[C@H](O)[C@@H]1O [Compound 333] | > 500 |
| C[C@H]1O[C@@H](n2c(NC3CC3)nc3c(OCc4ccc(C#N)cc4)ncnc32)[C@H](O)[C@@H]1O [Compound 39] | 1 to 20 |
| CNC(=O)[C@H]1O[C@@H](n2cnc3c(OCc4ccc([N+](=O)[O-])cc4)ncnc32)[C@H](O)[C@@H]1O [Compound 279] | > 500 |
| CC1OC(n2c(NC3CCC(C)(O)CC3)nc3c(OCc4ccc([N+](=O)[O-])cc4)ncnc32)C(O)C1O (single isomer, unassigned) [Compound 118] | 1 to 20 |
| O=[N+]([O-])c1ccc(COc2ncnc3c2ncn3[C@@H]2O[C@H](CCCO)[C@@H](O)[C@H]2O)cc1 [Compound 218] | 20 to 500 |
| C[C@H]1O[C@@H](n2c(NCC3CCOCC3)nc3c(OCc4ccc(C#N)cc4)ncnc32)[C@H](O)[C@@H]1O [Compound 109] | 1 to 20 |
| C[C@H]1O[C@@H](n2cnc3c(NCc4ccc5ncccc5c4)ncnc32)[C@H](O)[C@@H]1O [Compound 376] | > 500 |
| C[C@H]1O[C@@H](n2cnc3c(N4CCN(c5ccc([N+](=O)[O-])cc5)CC4)ncnc32)[C@H](O)[C@@H]1O [Compound 299] | > 500 |
| C[C@H]1O[C@@H](n2cnc3c(SCc4nc(-c5ccc(F)cc5)no4)ncnc32)[C@H](O)[C@@H]1O [Compound 395] | > 500 |
| Cc1ccc(COc2ncnc3c2ncn3[C@@H]2O[C@H](C)[C@@H](O)[C@H]2O)cc1 [Compound 211] | 20 to 500 |
| C[C@H]1O[C@@H](n2c(N)nc3c(OCCc4ccc([N+](=O)[O-])cc4)ncnc32)[C@H](O)[C@@H]1O [Compound 215] | 20 to 500 |
| C[C@H]1OC(n2cnc3c(COc4ccc(OC(F)F)cc4)ncnc32)[C@H](O)[C@@H]1O (stereo partly drawn) [Compound 233] | > 500 |
| C[C@H]1O[C@@H](n2c(NCC3COC3)nc3c(OCc4ccc(Cl)cc4)ncnc32)[C@H](O)[C@@H]1O [Compound 423] | > 500 |
| CC(C)NC(=O)c1ccc(CNc2ncnc3c2ncn3[C@@H]2O[C@H](C)[C@@H](O)[C@H]2O)cc1 [Compound 386] | > 500 |
| C[C@H]1O[C@@H](n2cnc3c(SCc4cc(-c5ccco5)on4)ncnc32)[C@H](O)[C@@H]1O [Compound 359] | > 500 |
| C[C@H]1O[C@@H](n2c(N[C@H]3C[C@@](C)(O)C3)nc3c(OCc4ccc(C#N)cc4)ncnc32)[C@H](O)[C@@H]1O [Compound 119] | 20 to 500 |
| C[C@H]1O[C@@H](n2c(N[C@H]3CC[C@@H](O)CC3)nc3c(OCc4ccc([N+](=O)[O-])cc4)ncnc32)[C@H](O)[C@@H]1O [Compound 56] | < 1 |
| C[C@H]1O[C@@H](n2cnc3c(-c4nc(-c5ccc([N+](=O)[O-])cc5)no4)ncnc32)[C@H](O)[C@@H]1O [Compound 420] | > 500 |
| C[C@H]1O[C@@H](n2cnc3c(OCCc4ccc(Cl)cc4)ncnc32)[C@H](O)[C@@H]1O [Compound 293] | > 500 |
| C[C@H]1O[C@@H](n2cnc3c(OCc4ccc(-n5ccnc5)cc4)ncnc32)[C@H](O)[C@@H]1O [Compound 316] | > 500 |

| SMILES | IC50 [nM] |
| --- | --- |
| C[C@H]1O[C@@H](n2cnc3c(NCc4ccc(C(=O)N(C)C)cc4)ncnc32)[C@H](O)[C@@H]1O [Compound 370] | > 500 |
| C[C@H]1O[C@@H](n2cnc3c(C(=O)N4CCc5cc([N+](=O)[O-])ccc5C4)ncnc32)[C@H](O)[C@@H]1O [Compound 302] | > 500 |
| C[C@H]1O[C@@H](n2c(NC3CCC(O)CC3)nc3c(N4CCc5ccc([N+](=O)[O-])cc5C4)ncnc32)[C@H](O)[C@@H]1O (stereo partly drawn) [Compound 140] | < 1 |
| C[C@H]1O[C@@H](n2cnc3c(OCc4c(F)cc(F)cc4F)ncnc32)[C@H](O)[C@@H]1O [Compound 260] | > 500 |
| C[C@H]1O[C@@H](n2cnc3c(C(=O)NCc4ccc5c(ccn5C)c4)ncnc32)[C@H](O)[C@@H]1O [Compound 351] | > 500 |
| C[C@H]1O[C@@H](n2cnc3c(N(C)CCc4ccc([N+](=O)[O-])cc4)ncnc32)[C@H](O)[C@@H]1O [Compound 324] | > 500 |
| C[C@H]1O[C@@H](n2cnc3c(N4CCC(c5ccc([N+](=O)[O-])cc5)CC4)ncnc32)[C@H](O)[C@@H]1O [Compound 213] | 20 to 500 |
| C[C@H]1O[C@@H](n2cnc3c(N4CC(c5ccc([N+](=O)[O-])cc5)C4)ncnc32)[C@H](O)[C@@H]1O [Compound 209] | 20 to 500 |
| Cc1cc(CSc2ncnc3c2ncn3[C@@H]2O[C@H](C)[C@@H](O)[C@H]2O)no1 [Compound 348] | > 500 |
| C[C@H]1O[C@@H](n2c(Nc3cn[nH]c3)nc3c(OCc4ccc([N+](=O)[O-])cc4)ncnc32)[C@H](O)[C@@H]1O [Compound 35] | < 1 |
| C[C@H]1O[C@@H](n2cnc3c(OCc4ccc(OC(F)(F)F)c(Cl)c4)ncnc32)[C@H](O)[C@@H]1O [Compound 234] | > 500 |
| C[C@H]1O[C@@H](n2cnc3c(OCc4ccc(-n5cncn5)cc4)ncnc32)[C@H](O)[C@@H]1O [Compound 314] | > 500 |
| C[C@H]1O[C@@H](n2c(N[C@H]3CC[C@H](O)CC3)nc3c(OCc4ccc([N+](=O)[O-])cc4)ncnc32)[C@H](O)[C@@H]1O [Compound 57] | < 1 |
| C[C@H]1O[C@@H](n2cnc3c(NCc4ccc(Cl)c(Cl)c4)ncnc32)[C@H](O)[C@@H]1O [Compound 254] | > 500 |
| C[C@H]1O[C@@H](n2c(N[C@H]3CC[C@](C)(O)CC3)nc3c(N4CCc5ccc([N+](=O)[O-])cc5C4)ncnc32)[C@H](O)[C@@H]1O [Compound 144] | 1 to 20 |
| COCCCNc1nc2c(N3CCc4ccc(C#N)cc4C3)ncnc2n1[C@@H]1O[C@H](C)[C@@H](O)[C@H]1O [Compound 160] | 1 to 20 |
| C[C@H]1O[C@@H](n2c(N[C@H]3CC[C@@](C)(O)CC3)nc3c(OCc4ccc(F)cc4)ncnc32)[C@H](O)[C@@H]1O [Compound 130] | 1 to 20 |
| C[C@H]1O[C@@H](n2cnc3c(NCc4ccc5c(c4)CCC5)ncnc32)[C@H](O)[C@@H]1O [Compound 322] | > 500 |
| CN(C)C(=O)[C@H]1O[C@@H](n2cnc3c(OCc4ccc([N+](=O)[O-])cc4)ncnc32)[C@H](O)[C@@H]1O [Compound 329] | > 500 |
| C[C@H]1O[C@@H](n2cnc3c(SCc4ccc5ccccc5n4)ncnc32)[C@H](O)[C@@H]1O [Compound 342] | > 500 |
| CNc1ccccc1COc1ncnc2c1ncn2[C@@H]1O[C@H](C)[C@@H](O)[C@H]1O [Compound 372] | > 500 |
| C[C@H]1O[C@@H](n2cnc3c(C(=O)NCc4ccc(OC(F)F)cc4)ncnc32)[C@H](O)[C@@H]1O [Compound 301] | > 500 |
| C[C@H]1O[C@@H](n2c(NC3CCC(O)C3)nc3c(OCc4ccc(Cl)cc4)ncnc32)[C@H](O)[C@@H]1O (stereo partly drawn) [Compound 101] | 20 to 500 |
| C[C@H]1O[C@@H](n2cnc3c(OCc4ccc(C(F)(F)F)cc4Cl)ncnc32)[C@H](O)[C@@H]1O [Compound 307] | > 500 |
